Data from PubChem BioAssay (NCI).
“And” between values parts separate entries of the source, which are not always exact repeats. Identical values can stand only once.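 In this assay, cells in 96-well plates receive the compound at five concentrations for 48 hours. Endpoints are linearly interpolated between the surrounding concentrations. GI50 is the concentration that inhibits growth by half. TGI: total growth inhibition.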

Key:
Test in all cases: growth of human tumour cells (NCI), 48 h
[1] = test system: SW-620 colon
[2] = test system: SF-295 CNS
[3] = test system: CAKI-1 renal
[4] = test system: M14 melanoma
[5] = test system: UACC-62 melanoma
[6] = test system: HCT-116 colon
[7] = test system: LOX IMVI melanoma
[8] = test system: K-562 leukemia
[9] = test system: ACHN renal
[10] = test system: SR leukemia

SMILES	TGI [1]	TGI [2]	TGI [3]	TGI [4]	TGI [5]	TGI [6]	TGI [7]	TGI [8]	TGI [9]	TGI [10]	GI50 [1]	GI50 [2]	GI50 [3]	GI50 [4]	GI50 [5]	GI50 [6]	GI50 [7]	GI50 [8]	GI50 [9]	GI50 [10]
COc1ccc2oc3cccc(NCCN(C)C)c3c(=O)c2c1	15.6 µM	29.9 µM	18.2 µM	29.4 µM	26.6 µM	19.8 µM	22.7 µM	25.3 µM	23.2 µM	27.1 µM	–	–	–	–	–	–	–	–	–	–
CN=S(=O)(c1ccccc1)c1ccccc1	> 100 µM	> 100 µM	> 100 µM	> 100 µM	> 100 µM	> 100 µM	> 100 µM	> 100 µM	> 100 µM	> 100 µM	–	–	–	–	–	–	–	–	–	–
C=C1CC[C@@H]2[C@](C)(COC(C)=O)[C@H](OC(C)=O)CC[C@@]2(C)[C@@H]1CC(Nc1ccc(S(=O)(=O)Nc2nccc(C)n2)cc1)C1=CCOC1=O (stereo not given in full)	3.68 µM	25.6 µM	12.5 µM	10.8 µM	7.13 µM	3.56 µM	3.24 µM	21.7 µM	13 µM	> 100 µM	1.6 µM	12.4 µM	3.56 µM	2.81 µM	2.38 µM	1.6 µM	1.53 µM	2.97 µM	3.64 µM	0.753 µM
Cc1nc2sc(C(=O)Nc3ccccc3)c(N)c2cc1C(=O)/C=C/c1ccccc1	4.49 µM	7.56 µM	3.74 µM	4.49 µM	3.45 µM	2.97 µM	3.13 µM	17 µM	3.45 µM	11.7 µM	1.74 µM	2.77 µM	1.87 µM	1.76 µM	1.64 µM	1.46 µM	1.68 µM	2.41 µM	1.81 µM	1.38 µM
N#CC(C(=O)C(=O)NCCCNC(=O)C(=O)C(C#N)c1ccccc1)c1ccccc1 (stereo not given)	> 100 µM	> 100 µM	> 100 µM	> 100 µM	> 100 µM	> 100 µM	> 100 µM	> 100 µM	> 100 µM	> 100 µM	–	–	–	–	–	–	–	–	–	–
Cc1ccc(NC(=O)/C(=N\Nc2ccc([N+](=O)[O-])cc2[N+](=O)[O-])C2C(=O)NC(=O)NC2=O)cc1	> 100 µM	> 100 µM	> 100 µM	> 100 µM	97.6 µM	> 100 µM	> 100 µM	> 100 µM	> 100 µM	> 100 µM	–	–	–	–	–	–	–	–	–	–
CC(=O)O[C@@H]1CC2C(C)(C)CCCC2(C)C2=C1C(=O)C(C(C)C)=CC2=O (stereo not given in full)	3.28 µM	3.61 µM	2.63 µM	2.34 µM	2.07 µM	2.8 µM	3.48 µM	> 100 µM	1.96 µM	> 100 µM	1.19 µM	1.77 µM	1.03 µM	0.46 µM	0.458 µM	0.467 µM	1.59 µM	1.69 µM	0.644 µM	0.653 µM
Nc1cc(N)c(N)cc1N	12.1 µM	3.31 µM	7.17 µM	3.37 µM	2.97 µM	4.61 µM	3.75 µM	> 100 µM	3.72 µM	7.66 µM	3.09 µM	1.7 µM	2.55 µM	1.87 µM	1.55 µM	2.01 µM	1.82 µM	2.92 µM	1.73 µM	2.56 µM
CC(C)(C)c1ccc(S(=O)(=O)N[C@H]2CC[C@H]3[C@@H]4CCc5cc(OS(=O)(=O)O)ccc5[C@H]4CC[C@]23C)cc1	12.5 µM	6.76 µM	8.89 µM	4.31 µM	3.72 µM	3.35 µM	3.11 µM	13.6 µM	4.24 µM	7.02 µM	3.37 µM	2.51 µM	2.77 µM	2.07 µM	1.81 µM	1.79 µM	1.7 µM	3.22 µM	2.01 µM	2.45 µM
COc1cc(-c2cn(-c3ccc(Cl)cc3)c(C)c2C(=O)C(F)(F)F)cc(OC)c1OC	> 100 µM	> 100 µM	> 100 µM	> 100 µM	> 100 µM	> 100 µM	> 100 µM	> 100 µM	> 100 µM	> 100 µM	> 100 µM	> 100 µM	> 100 µM	> 100 µM	> 100 µM	7.03 µM	> 100 µM	22.7 µM	> 100 µM	4.92 µM
CCOc1ccc(NCc2cc(OC)c(OC)c(OC)c2)cc1	> 100 µM	3.44 µM	> 100 µM	> 100 µM	> 100 µM	48.2 µM and 46 µM	> 84 µM	> 63.1 µM	> 100 µM	> 100 µM	–	–	2.01 µM and 7.61 µM	–	–	–	–	–	–	–
COc1ccc(C(C#N)NNc2nc(C)cc(=O)[nH]2)cc1OC (stereo not given)	> 100 µM	> 100 µM	> 100 µM	> 100 µM	> 100 µM	> 100 µM	> 100 µM	> 100 µM	> 100 µM	> 100 µM	–	–	–	–	–	–	–	–	–	–
Oc1ccc(CCCCCCc2ccc(O)cc2)cc1	20.5 µM	15.5 µM	7.58 µM	17.5 µM	15.3 µM	22.5 µM	17.9 µM	> 75.1 µM	12 µM	> 100 µM	7.29 µM	3.18 µM	1.75 µM	4.7 µM	4.24 µM	9.68 µM	1.5 µM	6.81 µM	1.55 µM	6.15 µM
OCc1ccc(-c2nn(Cc3ccccc3)c3ccccc23)o1	51.9 µM and 32.8 µM	33.7 µM and 46 µM	> 63.5 µM and 34 µM	45.6 µM and > 57.8 µM	16.4 µM and > 44.4 µM	20 µM and 22.7 µM	29.8 µM and 27.7 µM	63.2 µM and > 42.3 µM	91.9 µM and 39.8 µM	45.2 µM and 39.6 µM	13.3 µM and 12.3 µM	13.4 µM and 18.5 µM	–	21.1 µM and 29.2 µM	0.52 µM and 3.41 µM	1.65 µM and 8.72 µM	14.6 µM	10.1 µM and 7.41 µM	19.8 µM and 16 µM	12 µM and 4.48 µM
CC(=O)Nc1ccc2c(c1)oc(=O)c1cc(NC(C)=O)ccc12	> 100 µM	> 100 µM	> 100 µM	> 100 µM	> 100 µM	> 100 µM	> 100 µM	> 100 µM	> 100 µM	77.4 µM	> 100 µM	> 100 µM	> 100 µM	91.6 µM	63.4 µM	80.8 µM	75.6 µM	> 100 µM	> 100 µM	8.52 µM
